Source: US10479780B2, “Aminopyrazole derivatives” (Chugai Seiyaku Kabushiki Kaisha, priority 2015, dated 2019)
Like-named read-outs stand apart in the source and are kept apart here.

Legend:
Format in all cases: biochemical
human Yes1 enzyme = target: T1, human Yes1 enzyme (Homo sapiens, UniProt P07947); assay: Yes1 enzyme inhibitory activity (time-resolved fluorometry, biotinylated peptide phosphorylation); conditions: read-out: YES_IC50
T1 construct: made in house
Summary of the method: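 Inhibition was expressed against a compound-free control to give IC50, using TR-FRET read-out (Eu-cryptate anti-pTyr antibody, streptavidin-XL665).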

human Src enzyme = target: T2, human Src enzyme (Homo sapiens, UniProt P12931); assay: Src enzyme inhibitory activity (time-resolved fluorometry, biotinylated peptide phosphorylation); conditions: read-out: SRC_IC50
T2 construct: purchased Carna Biosciences, Inc. 08-173
T2 sequence (P12931 whole entry): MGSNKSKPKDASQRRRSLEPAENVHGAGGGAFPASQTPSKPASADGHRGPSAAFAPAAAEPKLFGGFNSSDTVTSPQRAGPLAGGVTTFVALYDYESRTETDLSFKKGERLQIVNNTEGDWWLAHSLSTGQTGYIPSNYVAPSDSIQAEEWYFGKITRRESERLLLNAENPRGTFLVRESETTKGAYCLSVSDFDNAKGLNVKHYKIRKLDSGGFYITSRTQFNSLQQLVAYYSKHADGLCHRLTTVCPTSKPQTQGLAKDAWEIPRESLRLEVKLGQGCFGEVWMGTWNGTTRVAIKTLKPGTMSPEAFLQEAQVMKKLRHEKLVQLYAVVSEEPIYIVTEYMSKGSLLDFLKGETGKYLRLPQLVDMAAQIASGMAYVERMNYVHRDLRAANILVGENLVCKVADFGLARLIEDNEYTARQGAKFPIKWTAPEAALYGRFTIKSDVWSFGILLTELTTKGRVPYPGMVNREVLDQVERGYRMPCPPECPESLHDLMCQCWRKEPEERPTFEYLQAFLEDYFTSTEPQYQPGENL
Summary of the method: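 Compounds were tested for blocking tyrosine phosphorylation of a biotinylated peptide substrate by recombinant human Src. Phosphorylated product was quantified by time-resolved fluorometry using europium cryptate and XL665 conjugates, and IC50 was calculated against the compound-free control.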

human Lck enzyme = target: T3, human Lck enzyme (Homo sapiens, UniProt P06239); assay: Lck enzyme inhibitory activity (time-resolved fluorometry, biotinylated peptide phosphorylation); conditions: read-out: LCK_IC50
T3 construct: purchased Carna Biosciences, Inc. 08-170
T3 sequence (P06239 whole entry): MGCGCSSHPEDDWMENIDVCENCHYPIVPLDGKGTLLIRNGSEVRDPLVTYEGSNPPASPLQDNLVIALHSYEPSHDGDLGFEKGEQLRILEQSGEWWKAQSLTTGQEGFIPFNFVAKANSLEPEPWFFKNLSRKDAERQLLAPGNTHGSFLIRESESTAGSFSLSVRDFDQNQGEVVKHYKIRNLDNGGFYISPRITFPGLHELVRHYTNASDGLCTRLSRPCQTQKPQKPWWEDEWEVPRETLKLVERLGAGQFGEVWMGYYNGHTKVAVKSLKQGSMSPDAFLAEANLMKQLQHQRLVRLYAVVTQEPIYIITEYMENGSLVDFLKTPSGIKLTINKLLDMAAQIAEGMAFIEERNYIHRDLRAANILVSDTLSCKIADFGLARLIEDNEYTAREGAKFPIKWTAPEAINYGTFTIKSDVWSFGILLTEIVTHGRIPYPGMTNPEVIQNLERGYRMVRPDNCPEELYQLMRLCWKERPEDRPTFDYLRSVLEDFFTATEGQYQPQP
Summary of the method: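 Readout pairs a europium cryptate-labelled anti-phosphotyrosine antibody with XL665-streptavidin, measured by time-resolved fluorescence. IC50 derived from percent inhibition against untreated controls.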

[1] = biotinylated peptide phosphorylation

T1 sequence (P07947 whole entry): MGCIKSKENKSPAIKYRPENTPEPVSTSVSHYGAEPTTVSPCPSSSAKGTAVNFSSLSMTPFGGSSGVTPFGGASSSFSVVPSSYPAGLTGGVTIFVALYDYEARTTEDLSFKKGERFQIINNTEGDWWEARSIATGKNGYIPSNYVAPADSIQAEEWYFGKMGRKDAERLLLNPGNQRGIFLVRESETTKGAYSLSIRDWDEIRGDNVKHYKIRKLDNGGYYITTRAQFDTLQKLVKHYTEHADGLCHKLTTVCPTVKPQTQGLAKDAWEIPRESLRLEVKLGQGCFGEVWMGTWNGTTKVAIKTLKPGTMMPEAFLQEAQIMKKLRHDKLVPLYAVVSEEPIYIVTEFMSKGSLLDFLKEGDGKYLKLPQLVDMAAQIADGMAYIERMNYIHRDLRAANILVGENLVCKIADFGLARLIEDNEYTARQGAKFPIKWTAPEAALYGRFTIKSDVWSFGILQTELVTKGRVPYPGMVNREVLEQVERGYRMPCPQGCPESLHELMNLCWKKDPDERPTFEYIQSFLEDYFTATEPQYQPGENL

Structure (SMILES) | IC50 (human Yes1 enzyme; [1]) [nM] | IC50 (human Src enzyme; [1]) [nM] | IC50 (human Lck enzyme; [1]) [nM] | IC50 (human Yes1 enzyme) [nM] | IC50 (human Src enzyme) [nM] | IC50 (human Lck enzyme) [nM]
Cc1cc(Oc2ccccc2F)ccc1-n1ncc(C(=O)c2cc3cc(OCC(F)F)c(NS(=O)(=O)c4cccc(C#N)c4)cc3[nH]2)c1N [Example 5-1-416, N-[2-[5-amino-1-[4-(2-fluorophenoxy)-2-methylphenyl]pyrazole-4-carbonyl]-5-(2,2-difluoroethoxy)-1H-indol-6-yl]-3-cyanobenzenesulfonamide] | 3.4 | 210 | 58 | – | – | –
Cc1cc(Oc2ccccc2F)ncc1-n1ncc(C(=O)c2cc3cc(F)c(N4C(=O)NC(C)(C)C4=O)cc3[nH]2)c1N [Example 5-1-379, 3-[2-[5-amino-1-[6-(2-fluorophenoxy)-4-methylpyridin-3-yl]pyrazole-4-carbonyl]-5-fluoro-1H-indol-6-yl]-5,5-dimethylimidazolidine-2,4-dione] | – | – | – | 4.5 | 61 | 11
COc1cc2cc(C(=O)c3cnn(-c4cnc(Oc5ccccc5F)cc4C)c3N)[nH]c2cc1NS(=O)(=O)CC(=O)N1CCOCC1 [Example 4-10-016, N-[2-[5-amino-1-[6-(2-fluorophenoxy)-4-methylpyridin-3-yl]pyrazole-4-carbonyl]-5-methoxy-1H-indol-6-yl]-2-morpholin-4-yl-2-oxoethanesulfonamide] | 0.59 | 17 | 5.8 | – | – | –
Cc1cc(Oc2ccccc2F)cc(F)c1-n1ncc(C(=O)c2cc3cc(OCC(F)F)c(N4CCCC4=O)cc3[nH]2)c1N [Example 4-21-004, 1-[2-[5-amino-1-[2-fluoro-4-(2-fluorophenoxy)-6-methylphenyl]pyrazole-4-carbonyl]-5-(2,2-difluoroethoxy)-1H-indol-6-yl]pyrrolidin-2-one] | 1 | 9.2 | 3 | – | – | –
Cc1cc2cc(C(=O)c3cnn(-c4ccc(Oc5ncccc5Cl)cc4Cl)c3N)[nH]c2cc1NS(=O)(=O)N1CCOCC1 [Example 5-1-065, N-[2-[5-amino-1-[2-chloro-4-(3-chloropyridin-2-yl)oxyphenyl]pyrazole-4-carbonyl]-5-methyl-1H-indol-6-yl]morpholine-4-sulfonamide] | – | – | – | 7.7 | 350 | 120
Cc1cc(Oc2ccccc2F)ccc1-n1ncc(C(=O)c2cc3cc(OC(F)F)c(N4CCC(N5CCOCC5)CC4)cc3[nH]2)c1N [Example 4-25-032, [5-amino-1-[4-(2-fluorophenoxy)-2-methylphenyl]pyrazol-4-yl]-[5-(difluoromethoxy)-6-(4-morpholin-4-ylpiperidin-1-yl)-1H-indol-2-yl]methanone] | 0.83 | 48 | 11 | – | – | –
